{"source": "patent US10801054B2", "about": "(priority 2013, dated 2020)", "test_system": "Phage litmus", "note": "Where “and” joins values, the source holds several entries; their conditions need not be identical. Identical values can stand only once."}
{"smiles": "CCCCCC", "note": "[Hexane, n-hexane]", "values": [{"measurement": "Color change of Phage litmus bands upon exposure", "result": "immediately changed color"}, {"measurement": "Red-green-blue (RGB) color differences R3", "result": "0.69 and 0.99 and 0.53"}, {"measurement": "Time in which all color matrices of the Phage litmus responded", "result": 30, "unit": "s"}]}
{"smiles": "CCOCC", "note": "[Ether, diethyl ether]", "values": [{"measurement": "Color change of Phage litmus bands upon exposure", "result": "immediately changed color"}, {"measurement": "Red-green-blue (RGB) color differences G1", "result": "0.38 and 0.56 and 0.39"}, {"measurement": "Red-green-blue (RGB) color differences R1", "result": "1.31 and 1.20 and 1.24"}, {"measurement": "Red-green-blue (RGB) color differences R3", "result": "1.15 and 1.53 and 0.91"}, {"measurement": "Red-green-blue (RGB) color differences R4", "result": "1.30 and 1.54 and 1.12"}, {"measurement": "Time in which all color matrices of the Phage litmus responded", "result": 30, "unit": "s"}]}
{"smiles": "CCO", "note": "[EtOH, ethanol]", "values": [{"measurement": "Color change of Phage litmus bands upon exposure", "result": "immediately changed color"}, {"measurement": "Red-green-blue (RGB) color differences G3", "result": "3.32 and 2.87 and 2.98"}, {"measurement": "Red-green-blue (RGB) color differences R1", "result": "1.22 and 1.81 and 1.06"}, {"measurement": "Red-green-blue (RGB) color differences R3", "result": "2.54 and 1.97 and 2.26"}, {"measurement": "Time in which all color matrices of the Phage litmus responded", "result": 30, "unit": "s"}]}
